Consider one molecule from PMC8041276 (ACS Chemical Neuroscience, 2021).

Common to all, as to test: Eurofins Cerep off-target binding, % inhibition at 1 μM
The target in series [1] is T1, serotonin transporter (SERT) (Homo sapiens, UniProt P31645).
T1 construct: Eurofins Cerep (contract assay)
The method, then: (§1) Additionally, the affinity of compound 27 at the adrenergic α1A, muscarinic M1, histaminergic H1, dopaminergic D3, serotoninergic 5-HT2C, 5-HT3 receptors, serotonin transporter (SERT), and the human ether-a-go-go-related gene (hERG) channel were evaluated in Eurofins Cerep.

A further series deals with T2, D3 dopamine receptor (Homo sapiens, UniProt P35462).
T2 construct: Eurofins Cerep (contract assay)
T2 sequence (P35462 whole entry): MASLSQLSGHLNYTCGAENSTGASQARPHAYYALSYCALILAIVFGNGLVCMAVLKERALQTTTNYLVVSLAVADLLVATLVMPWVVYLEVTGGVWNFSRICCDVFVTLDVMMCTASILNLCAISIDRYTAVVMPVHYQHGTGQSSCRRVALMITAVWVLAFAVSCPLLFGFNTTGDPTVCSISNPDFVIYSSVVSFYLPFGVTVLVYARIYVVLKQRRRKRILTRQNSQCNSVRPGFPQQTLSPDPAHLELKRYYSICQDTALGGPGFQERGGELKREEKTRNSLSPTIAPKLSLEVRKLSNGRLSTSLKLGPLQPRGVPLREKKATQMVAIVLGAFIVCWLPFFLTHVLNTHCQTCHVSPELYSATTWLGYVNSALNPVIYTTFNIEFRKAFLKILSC
As to the method:
as §1

For another series, the target named is T3, serotonin 5-HT3 receptor (Homo sapiens, UniProt P46098).
T3 construct: Eurofins Cerep (contract assay)
T3 sequence (P46098 24-478): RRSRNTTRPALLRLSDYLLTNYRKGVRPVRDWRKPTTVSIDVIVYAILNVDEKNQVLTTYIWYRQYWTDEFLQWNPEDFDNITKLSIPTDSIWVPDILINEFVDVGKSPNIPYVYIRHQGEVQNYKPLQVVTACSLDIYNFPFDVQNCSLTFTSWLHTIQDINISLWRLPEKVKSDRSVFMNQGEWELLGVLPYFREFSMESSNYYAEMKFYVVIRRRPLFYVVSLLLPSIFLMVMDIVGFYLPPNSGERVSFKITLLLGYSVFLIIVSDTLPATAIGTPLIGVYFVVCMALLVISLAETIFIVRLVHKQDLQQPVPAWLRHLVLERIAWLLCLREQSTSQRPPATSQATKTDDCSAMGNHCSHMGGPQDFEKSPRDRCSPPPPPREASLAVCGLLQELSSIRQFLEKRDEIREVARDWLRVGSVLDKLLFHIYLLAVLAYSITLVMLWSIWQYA
As to the method: as §1

For a further series, the target named is T4, M1 muscarinic receptor (Homo sapiens, UniProt P11229).
T4 construct: Eurofins Cerep (contract assay)
T4 sequence (P11229 1-460): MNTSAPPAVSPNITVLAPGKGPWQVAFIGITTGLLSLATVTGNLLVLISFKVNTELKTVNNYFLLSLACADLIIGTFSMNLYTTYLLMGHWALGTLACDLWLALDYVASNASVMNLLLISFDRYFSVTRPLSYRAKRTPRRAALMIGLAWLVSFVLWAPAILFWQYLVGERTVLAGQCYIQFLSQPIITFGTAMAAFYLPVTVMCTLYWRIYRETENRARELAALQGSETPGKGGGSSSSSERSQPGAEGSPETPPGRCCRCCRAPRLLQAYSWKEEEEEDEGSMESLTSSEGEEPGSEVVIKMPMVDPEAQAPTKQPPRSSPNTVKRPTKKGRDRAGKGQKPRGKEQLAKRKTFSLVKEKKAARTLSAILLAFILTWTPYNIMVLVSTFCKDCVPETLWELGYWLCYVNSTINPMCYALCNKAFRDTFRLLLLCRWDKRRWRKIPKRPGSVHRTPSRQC
As to the method:
as §1

For the next series, the target named is T5, α1A adrenoreceptor (Homo sapiens, UniProt P35348).
T5 construct: Eurofins Cerep (contract assay)
T5 sequence (P35348 1-466): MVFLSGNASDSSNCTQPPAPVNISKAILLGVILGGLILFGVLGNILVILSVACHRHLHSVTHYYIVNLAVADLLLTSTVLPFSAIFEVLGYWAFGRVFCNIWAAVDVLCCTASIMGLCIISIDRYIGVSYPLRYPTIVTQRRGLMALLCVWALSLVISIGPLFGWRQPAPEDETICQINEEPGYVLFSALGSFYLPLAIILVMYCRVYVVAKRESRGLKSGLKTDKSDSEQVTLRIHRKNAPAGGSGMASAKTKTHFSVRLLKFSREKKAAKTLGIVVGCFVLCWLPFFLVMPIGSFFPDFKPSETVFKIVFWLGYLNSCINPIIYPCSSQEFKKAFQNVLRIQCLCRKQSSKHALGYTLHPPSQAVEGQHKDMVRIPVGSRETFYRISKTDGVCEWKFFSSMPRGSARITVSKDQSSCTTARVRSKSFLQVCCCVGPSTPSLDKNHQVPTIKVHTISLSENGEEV
As to the method: as §1

The target of the next series is T6, hERG channel (Homo sapiens, UniProt Q12809).
T6 construct: Eurofins Cerep (contract assay)
T6 sequence (Q12809 whole entry): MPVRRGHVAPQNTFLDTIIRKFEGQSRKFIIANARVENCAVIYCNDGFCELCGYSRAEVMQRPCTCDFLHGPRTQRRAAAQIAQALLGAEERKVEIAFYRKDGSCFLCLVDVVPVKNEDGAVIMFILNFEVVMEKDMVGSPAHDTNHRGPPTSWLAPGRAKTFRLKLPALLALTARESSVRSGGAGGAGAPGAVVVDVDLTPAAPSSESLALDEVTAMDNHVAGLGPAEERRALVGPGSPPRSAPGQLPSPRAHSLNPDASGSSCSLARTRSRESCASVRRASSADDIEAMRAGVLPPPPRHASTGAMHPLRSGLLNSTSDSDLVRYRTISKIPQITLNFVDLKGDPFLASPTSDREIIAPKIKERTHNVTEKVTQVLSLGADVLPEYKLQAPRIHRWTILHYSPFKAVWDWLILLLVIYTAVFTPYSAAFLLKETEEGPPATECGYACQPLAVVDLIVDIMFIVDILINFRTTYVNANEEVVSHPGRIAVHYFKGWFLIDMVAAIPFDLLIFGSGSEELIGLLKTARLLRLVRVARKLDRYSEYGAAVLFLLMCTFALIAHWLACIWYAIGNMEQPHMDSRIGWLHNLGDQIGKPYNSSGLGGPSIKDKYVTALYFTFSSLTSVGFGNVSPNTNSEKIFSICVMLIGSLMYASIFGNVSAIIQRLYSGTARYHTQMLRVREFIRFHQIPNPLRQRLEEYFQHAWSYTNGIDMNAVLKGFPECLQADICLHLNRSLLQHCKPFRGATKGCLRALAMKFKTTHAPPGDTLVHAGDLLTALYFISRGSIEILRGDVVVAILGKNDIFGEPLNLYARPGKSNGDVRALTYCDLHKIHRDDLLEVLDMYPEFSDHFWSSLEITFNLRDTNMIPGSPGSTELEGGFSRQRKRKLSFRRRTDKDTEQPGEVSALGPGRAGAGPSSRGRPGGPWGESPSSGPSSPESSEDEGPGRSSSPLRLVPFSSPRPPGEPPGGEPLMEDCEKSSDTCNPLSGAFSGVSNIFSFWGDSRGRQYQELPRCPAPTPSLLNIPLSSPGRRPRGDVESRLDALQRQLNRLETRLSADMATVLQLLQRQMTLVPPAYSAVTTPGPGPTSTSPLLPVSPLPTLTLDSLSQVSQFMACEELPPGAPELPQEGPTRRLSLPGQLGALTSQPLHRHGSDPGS
As to the method: as §1

Series [2] deals with T7, serotonin 5-HT2C receptor (Homo sapiens, UniProt P28335).
T7 construct: Eurofins Cerep (contract assay)
T7 sequence (P28335 33-458): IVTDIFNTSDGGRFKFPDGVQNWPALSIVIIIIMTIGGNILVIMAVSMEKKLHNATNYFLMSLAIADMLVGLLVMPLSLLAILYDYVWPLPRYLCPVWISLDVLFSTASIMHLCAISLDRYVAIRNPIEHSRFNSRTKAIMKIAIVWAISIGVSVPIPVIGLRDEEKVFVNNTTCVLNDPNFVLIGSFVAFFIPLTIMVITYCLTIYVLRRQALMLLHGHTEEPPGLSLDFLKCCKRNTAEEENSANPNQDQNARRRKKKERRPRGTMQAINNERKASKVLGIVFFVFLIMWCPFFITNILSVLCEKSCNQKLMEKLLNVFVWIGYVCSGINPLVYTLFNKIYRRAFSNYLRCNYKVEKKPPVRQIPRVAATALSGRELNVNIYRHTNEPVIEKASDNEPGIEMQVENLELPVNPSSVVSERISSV
As to the method:
as §1

A further series has as its target T8, H1 histaminic receptor (Homo sapiens, UniProt P35367).
T8 construct: Eurofins Cerep (contract assay)
The method, then: as §1

In general, inhibition refers to the change of the read-out against control, counted positive when it falls. Read a high inhibition as strong suppression.

T8 sequence (P35367 whole entry): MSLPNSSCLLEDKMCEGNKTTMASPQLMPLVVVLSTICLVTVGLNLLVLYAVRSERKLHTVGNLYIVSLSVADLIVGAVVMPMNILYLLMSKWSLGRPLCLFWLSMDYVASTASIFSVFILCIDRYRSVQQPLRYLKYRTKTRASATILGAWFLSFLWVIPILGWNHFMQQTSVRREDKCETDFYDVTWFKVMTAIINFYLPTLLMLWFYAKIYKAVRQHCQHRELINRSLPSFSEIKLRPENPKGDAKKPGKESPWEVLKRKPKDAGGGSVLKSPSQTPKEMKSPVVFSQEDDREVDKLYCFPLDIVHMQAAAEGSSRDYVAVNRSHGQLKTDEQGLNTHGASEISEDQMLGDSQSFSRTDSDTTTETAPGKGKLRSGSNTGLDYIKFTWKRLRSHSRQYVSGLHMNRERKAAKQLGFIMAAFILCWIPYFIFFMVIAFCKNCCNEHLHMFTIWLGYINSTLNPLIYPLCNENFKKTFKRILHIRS
T1 sequence (P31645 whole entry, species assumed): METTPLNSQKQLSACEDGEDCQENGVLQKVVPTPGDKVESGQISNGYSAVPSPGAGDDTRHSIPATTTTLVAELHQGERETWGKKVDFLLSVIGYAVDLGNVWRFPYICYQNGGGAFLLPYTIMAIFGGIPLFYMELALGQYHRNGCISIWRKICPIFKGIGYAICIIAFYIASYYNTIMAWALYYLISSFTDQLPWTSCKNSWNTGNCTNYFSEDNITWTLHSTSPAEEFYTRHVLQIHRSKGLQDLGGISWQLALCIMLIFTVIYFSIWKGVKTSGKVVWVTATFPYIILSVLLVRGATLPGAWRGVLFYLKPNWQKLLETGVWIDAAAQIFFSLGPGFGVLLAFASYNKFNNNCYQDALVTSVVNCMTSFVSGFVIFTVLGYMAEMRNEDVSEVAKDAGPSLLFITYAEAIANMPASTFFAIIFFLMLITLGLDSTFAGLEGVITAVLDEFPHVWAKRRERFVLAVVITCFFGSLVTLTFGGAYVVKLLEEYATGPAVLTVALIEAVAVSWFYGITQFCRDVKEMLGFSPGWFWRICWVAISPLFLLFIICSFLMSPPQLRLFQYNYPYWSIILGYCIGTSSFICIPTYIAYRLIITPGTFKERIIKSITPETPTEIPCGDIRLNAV

As for `O=C(N[C@@H]1CCNC1)c1ccn(S(=O)(=O)c2cccc(Cl)c2)c1-c1ccc(F)cc1` [Compound 27, (R)-2-(4-Fluorophenyl)-1-[(3-chlorophenyl)sulfonyl]-N-(pyrrolidin-3-yl)-1H-pyrrole-3-carboxamide], the inhibition at 1 µM in series [1] was 10%; on D3 dopamine receptor, 17%; at serotonin 5-HT3 receptor it was 2%; on M1 muscarinic receptor, 0%; at α1A adrenoreceptor, 15%; on hERG channel it was 1%. Moreover, the inhibition at 1 µM in series [2] amounted to 10%; at H1 histaminic receptor it was 9%.
